Results from US20230095026A1, “METHOD FOR STIMULATING AND INDUCING CHANGES IN ENVIRONMENT AROUND AGED SKIN CELLS” (AMOREPACIFIC CORPORATION, priority 2019, published 2023).

Key:
[1] = system: Fibroblast cells; test: Change in the number of UVB-aged fibroblast cells, SA-β-gal staining; type: cell-based, human
[2] = system: pigment-forming cells; test: Change in morphology and cell number of UVB-aged pigment-forming cells, SA-β-gal staining; type: cell-based, human
Experimental: Subsequently, the cells were treated with a compound represented by Chemical Formula E (Sigma-Aldrich Co., Ltd.).

O=C(O)[C@]1(O)C[C@@H](O)[C@@H](O)[C@H](O)C1 [Chemical Formula E]
number of cells ([1]; UVB-aged fibroblasts treated with the compound, FIGS. 4 and 5): the number of cells increased again depending on the concentration | ratio of the number of the aged cells stained with SA-β-gal to the total number of cells ([1]; UVB-aged fibroblasts, FIG. 6): decreased depending on the concentration | number of cells ([2]; UVB-aged pigment-forming cells treated with the compound, FIGS. 1 and 2): the number of cells increased again | ratio of the number of the aged cells stained with SA-β-gal to the total number of cells ([2]; UVB-aged pigment-forming cells, FIG. 3): decreased depending on the concentration
